# Data published in publication PMC11206987, “Investigation of the Efficacy of Benzylidene-3-methyl-2-thioxothiazolidin-4-one Analogs with Antioxidant Activities on the Inhibition of Mushroom and Mammal Tyrosinases” (Molecules, 2024).
# Read-outs that look alike come from different tables or passages of the source.
# Tests used:
# mushroom tyrosinase [1] = assay: Mushroom tyrosinase inhibition assay (dopachrome, 475 nm); format: biochemical; conditions: for IC50: mushroom tyrosinase
# Procedure: The ability of the BMTTZD analogs to inhibit mushroom tyrosinase was evaluated in the presence of L-dopa and L-tyrosine as previously described.
# mushroom tyrosinase [2] = molecular target: mushroom tyrosinase (Agaricus bisporus, UniProt C7FF04); assay: Kinetic study of mushroom tyrosinase inhibition (Lineweaver–Burk and Dixon plots); format: biochemical; conditions: for type of tyrosinase inhibition (Lineweaver–Burk plots): substrate L-dopa 0.5–16 mM
# Sequence of mushroom tyrosinase (Agaricus bisporus, UniProt C7FF04) (C7FF04 1-392): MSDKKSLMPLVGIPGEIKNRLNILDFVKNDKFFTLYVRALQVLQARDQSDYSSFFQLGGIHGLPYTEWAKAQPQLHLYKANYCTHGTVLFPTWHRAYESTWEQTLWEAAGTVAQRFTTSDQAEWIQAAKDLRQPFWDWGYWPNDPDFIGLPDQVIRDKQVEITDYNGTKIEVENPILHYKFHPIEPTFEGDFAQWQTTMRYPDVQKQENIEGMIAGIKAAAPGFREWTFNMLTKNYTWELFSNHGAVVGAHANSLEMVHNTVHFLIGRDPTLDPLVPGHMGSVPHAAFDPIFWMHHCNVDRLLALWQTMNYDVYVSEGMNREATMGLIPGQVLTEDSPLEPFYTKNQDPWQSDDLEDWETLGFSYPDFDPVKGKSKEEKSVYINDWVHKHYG
# Procedure: The initial rate of dopachrome generation was examined at various BMTTZD analog concentrations (0, 1.5, 3, and 6 µM for analog 1; 0, 2, 4, and 8 µM for analogs 2 and 5; and 0, 0.05, 0.1, and 0.2 µM for 3) with 0.5, 1, 2, 4, 8, or 16 mM L-dopa as substrates using mushroom tyrosinase. Plotting the reciprocal of the dopachrome formation rate against the inverse of the L-dopa concentration produced Lineweaver–Burk plots (Figure 2). Each Lineweaver–Burk plot created four straight lines with different slopes. For analogs 1 and 3, the four straight lines met at a point on the y-axis, whereas for analogs 2 and 5, the four straight lines converged at a point in the second quadrant.
# The Dixon plots produced lines that met in the second quadrant. The x-coordinate of the convergence position represents the inhibition constant (Ki) of the ligand.
# Lineweaver–Burk (L-B) plots were acquired for the kinetic analysis of analogs against mushroom tyrosinase as previously described. In brief, 10 µL of a solution of DMSO and BMTTZD analogs 1–3 or 5 (final concentrations: 0, 1.5, 3, and 6 µM for analog 1; 0, 2, 4, and 8 µM for analogs 2 and 5; and 0, 0.05, 0.1, and 0.2 µM for analog 3) in each well of a 96-well plate was mixed with 20 µL of aqueous mushroom tyrosinase solution (200 units/mL) and 170 µL of an aqueous substrate mixture (various concentrations of L-dopa (final concentrations: 16, 8, 4, 2, 1 and 0.5 mM) and 17.2 mM sodium phosphate buffer (pH 6.5)). During incubation (15 min at 37 °C), the increase in the well absorbance (ΔOD475/min) was calculated at 1 min intervals utilizing a VersaMax® reader.
# B16F10 cells [3] = assay: Cell cytotoxicity test (EZ-Cytox); format: cell-based, murine; conditions: 2.5–20 µM, 48 and 72 h
# Procedure: Because analogs 1–3 and 5 exerted potent mushroom tyrosinase inhibitory activities, their effects on anti-melanogenic and cellular tyrosinase activities were evaluated in B16F10 murine cells. Prior to examining their cellular activity, their cell viabilities were investigated. Cell viability was evaluated at 48 and 72 h after treatment with five different concentrations of analogs.
# The effect on B16F10 cytotoxicity was assessed following a previously described method. Cells (1 × 10^4 cells/well of a 96-well plate) were cultivated for 24 h with 5% CO2 at 37 °C. The cells were exposed to the BMTTZD analogs (test concentrations: 20, 10, 5, 2.5, and 0 µM) and cultivated with 5% CO2 at 37 °C for 72 h. An EZ-Cytox solution (10 µL; EZ-500, DoGenBio, Seoul, Republic of Korea) was exposed to each well, and the plate was cultivated for 2 h. Cell viability was calculated from the well absorbance measured at 450 nm utilizing a reader (VersaMax®).
# [4] = molecular target: T1, B16F10 cellular tyrosinase (Mus musculus, UniProt P11344); assay: Cellular tyrosinase activity assay in B16F10 cells stimulated with IBMX plus α-MSH; format: cell-based, murine; conditions: 72 h; for effect on stimulator-induced cellular tyrosinase activity: 5, 10, 20 µM, IBMX plus α-MSH
# T1 construct: host or cells: B16F10 cells
# T1 sequence (P11344 19-533): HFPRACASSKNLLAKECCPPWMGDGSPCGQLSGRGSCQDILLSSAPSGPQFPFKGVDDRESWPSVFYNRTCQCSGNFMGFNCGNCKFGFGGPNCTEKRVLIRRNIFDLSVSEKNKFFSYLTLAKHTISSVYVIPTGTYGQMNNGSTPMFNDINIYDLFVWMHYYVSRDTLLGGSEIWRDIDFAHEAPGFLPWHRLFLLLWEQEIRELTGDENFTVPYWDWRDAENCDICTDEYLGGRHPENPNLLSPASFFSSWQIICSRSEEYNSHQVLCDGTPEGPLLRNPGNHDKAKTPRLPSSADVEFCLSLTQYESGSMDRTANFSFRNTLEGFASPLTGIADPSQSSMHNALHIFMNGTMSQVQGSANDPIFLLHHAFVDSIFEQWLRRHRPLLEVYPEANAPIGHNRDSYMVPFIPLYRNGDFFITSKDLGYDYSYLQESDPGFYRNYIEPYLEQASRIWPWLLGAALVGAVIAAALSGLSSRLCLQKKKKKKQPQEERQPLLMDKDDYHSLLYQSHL
# Procedure: Analogs 1, 3, and 5 were exposed to B16F10 cells at various concentrations (20, 10, 5, and 0 µM) before exposure to IBMX (200 µM; 3-isobutyl-1-methylxanthine) and α-MSH (1 µM; α-melanocyte-stimulating hormone). After incubation (72 h), B16F10 cellular tyrosinase activity was determined. […] It was examined whether the cellular tyrosinase inhibition of the BMTTZD analogs could influence B16F10 cellular melanin contents.
# Effects on B16F10 tyrosinase inhibition were evaluated as previously described. A 6-well plate containing 1 × 10^5 B16F10 cells/well was cultivated for 23 h under conditions identical to those of the cell culture. […] The cells were cultivated for 72 h. After washing 2 times with PBS, the cells were lysed in a 100 µL lysis buffer, including phenylmethylsulfonyl fluoride (5 µL; 1 mM), Triton X-100 (5 µL; 1%), and phosphate buffer (90 µL; 50 mM (pH 6.5)). After 30 min incubation at −80 °C, the cell lysates were centrifuged at 4 °C for 30 min. The supernatants (80 µL) of the lysates were moved to each well of a microplate and mixed with 20 µL 10 mM L-dopa.
# B16F10 cells [5] = assay: Melanin content assay in B16F10 cells; format: cell-based, murine; conditions: 72 h; for effect on intracellular melanin contents enhanced by IBMX plus α-MSH: 5, 10, 20 µM
# Procedure: We examined whether the ability of analogs 1, 3, and 5 to inhibit intracellular tyrosinase activity could affect intracellular melanin levels. B16F10 cells were utilized as mammalian cells. IBMX and α-MSH were used at 200 µM and 1 µM, respectively, to increase melanin biosynthesis. […] For the intracellular melanin content determination, the absorbance at 405 nm was evaluated after 72 h of incubation.
# The effect of BMTTZD analogs on melanin biosynthesis was investigated following a previously described method. A 6-well microplate containing 1 × 10^5 B16F10 cells/well was cultivated for 23 h under conditions identical to those of the cell culture. […] After exposure to IBMX and α-MSH, B16F10 cells were cultivated for 72 h at 37 °C. The cells were rinsed 2 times with PBS, treated with 1N-NaOH aqueous solution (100 µL), and cultivated at 60 °C for 1 h. The lysates were moved to a microplate. At 405 nm, the well absorbance was measured utilizing a VersaMax® reader. Each experiment was carried out three times independently.
# [6] = molecular target: T1, B16F10 cellular tyrosinase; assay: In situ cellular tyrosinase activity assay using L-dopa staining; format: cell-based, murine; conditions: 72 h; for effect on stimulator-raised in situ intracellular tyrosinase activity (L-dopa staining): analogs 5, 10, 20 µM, kojic acid 20 µM
# Procedure: Because tyrosinase plays a critical role in melanogenesis, in situ intracellular tyrosinase activity was measured. The in situ intracellular tyrosinase activity was evaluated in B16F10 cells following a previously reported procedure. Stimulators (α-MSH plus IBMX) were exposed to cells to raise tyrosinase activity levels, and analogs 1, 3, and 5 were treated at 20, 10, and 5 µM for 72 h. After fixation and permeabilization using paraformaldehyde and Triton X-100, the cells were stained with L-dopa.
# A 24-well plate containing 1 × 10^3 B16F10 cells/well was cultivated for 24 h under conditions identical to those of the cell culture. […] The cells were then cultivated under conditions identical to those of the cell culture for 72 h. Cultivated cells were fixed for 40 min with paraformaldehyde (4%), washed 2 times with PBS, and permeabilized with Triton X-100 (0.1%) for 2 min. After washing 2 times with PBS, the cells in the 24-well plate were stained with a 2 mM L-dopa aqueous solution (500 µL/well) for 2 h at 37 °C. Staining was photographed and analyzed utilizing a camera connected to a microscope (Motic, Hong Kong).
# [7] = DPPH radical scavenging activity assay; conditions: 500 µM
# Procedure: First, the ability of BMTTZD analogs 1–8 to scavenge DPPH radicals was examined using L-ascorbic acid (vitamin C; positive control). All samples were tested at 500 µM.
# The ability of the BMTTZD analogs to scavenge DPPH radicals was evaluated as previously reported. To each well of a 96-well plate containing analogs 1–8 (5 mM in […]; 20 µL) was added a DPPH solution (0.2 mM in methanol; 180 µL). The mixture was kept in a place without light for 30 min at 25°C to generate DPPH radicals. The well absorbance at 517 nm was measured utilizing a VersaMax® reader. The ability of the analogs to remove DPPH radicals was compared to that of vitamin C.
# [8] = substrate L-dopa, read-out: IC50 (Mean ± SEM, µM) L-Dopa
# [9] = substrate L-tyrosine, read-out: IC50 (Mean ± SEM, µM) L-Tyrosine
# [10] = analog at highest concentration tested (20 µM)
structure (smiles),measurement,setting,value
"CN1C(=O)/C(=C/c2ccc(O)cc2)SC1=S [Analog 1, (Z)-5-(4-Hydroxybenzylidene)-3-methyl-2-thioxothiazolidin-4-one]",reduction in tyrosinase inhibition relative to analog 3,mushroom tyrosinase [1]; substrate L-dopa,17 fold
same,IC50,mushroom tyrosinase [1]; [8],17.6 ± 0.62 µM
same,"tyrosinase inhibition, times stronger than kojic acid",mushroom tyrosinase [1]; substrate L-tyrosine,five times more strongly than kojic acid
same,IC50,mushroom tyrosinase [1]; [9],3.82 ± 0.22 µM
same,type of tyrosinase inhibition (Lineweaver–Burk plots),mushroom tyrosinase [2],competitive inhibitors
same,Ki,"mushroom tyrosinase [2]; substrate L-dopa, read-out: inhibition constant (Ki) from Dixon plots",6.2 µM
same,cytotoxicity (cell viability),B16F10 cells [3],did not exhibit cytotoxicity at ≤20 µM
same,effect on stimulator-induced cellular tyrosinase activity,[4],concentration-dependently and significantly reduced
same,cellular tyrosinase inhibition compared with kojic acid (20 µM),[4]; analog at 10 µM,slightly more strongly than kojic acid
same,cellular tyrosinase inhibition compared with kojic acid (20 µM),[4]; [10],stronger inhibitory effects than kojic acid
same,intracellular melanin contents compared with kojic acid,B16F10 cells [5]; 20 µM,levels similar to those in treatment with kojic acid
same,effect on intracellular melanin contents enhanced by IBMX plus α-MSH,B16F10 cells [5],significantly reduced the melanin contents
same,in situ intracellular tyrosinase inhibition compared with kojic acid,[6]; 20 µM,weaker intracellular tyrosinase inhibition efficacy than kojic acid
same,effect on stimulator-raised in situ intracellular tyrosinase activity (L-dopa staining),[6],concentration-dependently reduced the stimulator-enhanced intracellular tyrosinase inhibition
"COc1cc(/C=C2\SC(=S)N(C)C2=O)cc(OC)c1O [Analog 6, (Z)-5-(4-Hydroxy-3,5-dimethoxybenzylidene)-3-methyl-2-thioxothiazolidin-4-one]",IC50,mushroom tyrosinase [1]; [8],> 200 µM
same,IC50,mushroom tyrosinase [1]; [9],57.4 ± 10.9 µM
"COc1ccc(/C=C2\SC(=S)N(C)C2=O)cc1O [Analog 5, (Z)-5-(3-Hydroxy-4-methoxybenzylidene)-3-methyl-2-thioxothiazolidin-4-one]",IC50,mushroom tyrosinase [1]; [8],13.8 ± 2.64 µM
same,IC50,mushroom tyrosinase [1]; [9],3.6 ± 0.52 µM
same,type of tyrosinase inhibition (Lineweaver–Burk plots),mushroom tyrosinase [2],mixed-type inhibitors
same,cytotoxicity (cell viability),B16F10 cells [3],did not exhibit cytotoxicity at ≤20 µM
same,effect on stimulator-induced cellular tyrosinase activity,[4],concentration-dependently and significantly reduced
same,cellular tyrosinase inhibition compared with kojic acid (20 µM),[4]; [10],stronger inhibitory effects than kojic acid
same,intracellular melanin contents compared with kojic acid,B16F10 cells [5]; 20 µM,levels similar to those in treatment with kojic acid
same,effect on intracellular melanin contents enhanced by IBMX plus α-MSH,B16F10 cells [5],significantly reduced the melanin contents
same,effect on stimulator-raised in situ intracellular tyrosinase activity (L-dopa staining),[6],concentration-dependently reduced the stimulator-enhanced intracellular tyrosinase inhibition
"COc1cc(/C=C2\SC(=S)N(C)C2=O)ccc1O [Analog 4, (Z)-5-(4-Hydroxy-3-methoxybenzylidene)-3-methyl-2-thioxothiazolidin-4-one]",IC50,mushroom tyrosinase [1]; [8],> 200 µM
same,IC50,mushroom tyrosinase [1]; [9],54.8 ± 16.1 µM
same,DPPH radical scavenging activity,[7],82%
"O=C1O[C@H]([C@@H](O)CO)C(O)=C1O [L-Ascorbic acid, reference compound]",DPPH radical scavenging activity,[7],97%
"CN1C(=O)/C(=C/c2ccc(O)c(Br)c2)SC1=S [Analog 7, (Z)-5-(3-Bromo-4-hydroxybenzylidene)-3-methyl-2-thioxothiazolidin-4-one]",IC50,mushroom tyrosinase [1]; [8],> 200 µM
same,IC50,mushroom tyrosinase [1]; [9],33.2 ± 8.42 µM
"O=c1cc(CO)occ1O [Kojic acid, reference compound]",decrease of intracellular melanin contents,"B16F10 cells [5]; 20 µM, IBMX plus α-MSH (raised melanin 4.4-fold)",3.3 fold
"CN1C(=O)/C(=C/c2cc(Br)c(O)c(Br)c2)SC1=S [Analog 8, (Z)-5-(3,5-Dibromo-4-hydroxybenzylidene)-3-methyl-2-thioxothiazolidin-4-one]",IC50,mushroom tyrosinase [1]; [8],> 200 µM
same,IC50,mushroom tyrosinase [1]; [9],> 200 µM
